Experimental findings from PMC5936713, “Structural and functional studies of Spr1654: an essential aminotransferase in teichoic acid biosynthesis in Streptococcus pneumoniae” (Open Biology, 2018) are described below.

Assay [1] has as its target T1, Spr1654 (Streptococcus pneumoniae, UniProt A0A0H2URM1).
T1 construct: gene SP_1837; full-length, C-terminal His6 tag (pET-23b), expressed in E. coli T7 Express; homodimer; residues Tyr4-Thr404 seen in crystals
Briefly: transamination half-reaction, PLP ([…] nm) to PMP ([…] nm) absorbance. It counts as biochemical. Particulars: 0.5 mM L-glutamate, Spr1654/PLP 0.9 mg/ml, 50 mM MES pH 6.6, 200 mM NaCl, 25 °C; amino donor.

Assay [2] deals with T1, Spr1654. Briefly: X-ray crystal structure, […] Å; absorption spectroscopy ([…] nm). Format: binding. The following applies: covalent; internal aldimine with Lys199; 1 mM PLP preincubated, pH 7.5.
For assay [3], the target named is T1, Spr1654. Briefly: X-ray crystal structure, […] Å. It counts as binding. The following applies: PMP formed by adding L-glutamate to the PLP complex before crystallization; active site.
Assay [4] has as its target Spr1654 aminotransferase from Streptococcus pneumoniae, full length with C-terminal poly-histidine (Streptococcus pneumoniae) (UniProt Q8DNL6). Briefly: SEC; Superdex200 Increase 10/300 GL gel filtration, 20 mM Tris-HCl pH 7.5, 200 mM NaCl, 4°C; oligomeric state from the elution profile.

For `N[C@@H](CCC(=O)O)C(=O)O` [E, L-glutamate], the “transamination half-reaction, PLP (420 nm) to PMP (330 nm) absorbance” value on Spr1654 [1] is reported as “Spr1654 is able to deaminate L-glutamate in the first half-reaction of transamination with high efficiency”.
As for `Cc1ncc(COP(=O)(O)O)c(C=O)c1O` [PLP], at Spr1654 [2], the “X-ray crystal structure, 2.2 Å; absorption spectroscopy (420 nm)” value was “Clear electron density confirms the formation of a covalent bond between PLP and residue Lys199”.
In the case of `Cc1ncc(COP(=O)(O)O)c(CN)c1O` [PMP], at Spr1654 [3], the “X-ray crystal structure, 2.4 Å” value was “In the crystal structure of the Spr1654/PMP complex, the phosphate group serves as the main anchor”.
Regarding “Spr1654 aminotransferase from Streptococcus pneumoniae, full length with C-terminal poly-histidine (from UniProt Q8DNL6 1-417) (enzyme)”, in assay [4], the stoichiometry N was found to be 2.
